For CN1CCc2sc(C=C3C(=O)N4C(C(=O)O)=CSC34)cc2C1 (centres undefined), the melting point was over 25 °C.
CC(C)NC(=O)CCC(=NNC(N)=S)c1ccccc1 gave a melting point of 66 to 71 °C.
In the case of CC(C)n1nc(-c2c(-c3ccccc3)nn3ccc(OCCN4CCOCC4)cc23)ccc1=O, the melting point is reported as 160 to 162 °C.
Work on O=C(c1ccccc1)C(O)Cc1cccc(O)c1 (centres undefined) yielded a melting point of 118 to 119 °C.
In the case of COC(=O)CCNC1(C)CCN(c2ncc3ncnc(Nc4ccc(F)c(Cl)c4)c3n2)CC1, the melting point is reported as 134 to 135 °C.
CCN(C(=O)c1ccccc1)C(=NC(=O)c1ccccc1)NCc1ccc(S(N)(=O)=O)cc1 showed a melting point of 70 to 80 °C.
In the case of N#Cc1ccc(NC(=O)OCc2cccnc2)cc1, the melting point is reported as 205 to 207 °C.
For CSc1nnc(CNc2c(C)csc2C)n1C, the melting point was 92 to 96 °C.
Compound CN(C)c1cccc(NC(=O)c2cccc(S(=O)(=O)N3CCCCCC3)c2)c1 has a melting point of 178 to 180 °C.
For CN1CS(=O)c2cccc(Br)c21 (centres undefined), the melting point was 138 to 140 °C.
In the case of c1ccc2c(c1)C1CCC2c2c(OCC3CO3)cccc21 (centres undefined), the melting point is reported as 127 to 130 °C.
Compound Cc1oc(-c2ccccc2)nc1COc1ccc(CON=C(CCCCCCC(=O)O)c2ccc(F)cc2)cc1 has a melting point of 56 to 57 °C.
With CCOC(=O)Cc1ccccc1NC(=O)c1sc2ccc(OC)cc2c1OC(C)C the melting point was 105 to 106 °C.
Compound CC(C)(O)C(=O)c1ccc(OCC(=O)O)cc1 has a melting point of 131 to 134 °C.
Work on CC(C)(C)c1ccc(N)cn1 yielded a melting point of 61.5 to 62.7 °C.
With CC1(C)OC(=O)Nc2ccc(-c3ccc(Cl)cc3)cc21 the melting point was 255 to 257 °C.
CCCNC(=O)c1nnc(NCc2cc(Br)ccc2OCc2ccccc2)s1 showed a melting point of 154 °C.
For CC(C)(C)OC(=O)NCc1cccc(Cn2ccc(OCc3ccc(F)cc3F)c(Br)c2=O)c1, the melting point was 80 to 84 °C.
With CCCCN(CCCC)C(=O)NCCc1ccc(-c2csc(N)n2)cc1 the melting point was 42 to 43 °C.
Compound O=C(Nc1ccccc1O)c1ccc(OCCCCc2ccccc2)cc1 has a melting point of 116 to 117 °C.
CCc1cc2c(SCC(=O)OC)ncnc2s1 gave a melting point of 36 to 58 °C.
CC(=O)N1CCc2cccc(Cl)c2CC1 showed a melting point of 64 to 66 °C.
NC(=O)c1[nH]nc([C@@H]2O[C@H](CO)[C@@H](O)[C@H]2O)c1O showed a melting point of 112 to 115 °C.
Work on Cc1ccc(-n2nc(C#N)cc2-c2ccc(S(C)(=O)=O)cc2)cc1F yielded a melting point of 167 to 168 °C.
COc1cc(C(=O)NCC2NC(C)Cc3ccccc32)cc(OC)c1OC (centres undefined) showed a melting point of 162 to 164 °C.
Compound COc1cc(C=O)ccn1 has a melting point of 33 to 35 °C.
CC(C)(C)OC(=O)NC1CCCCCC=CC2CC2(C(=O)NS(=O)(=O)C2CC2)NC(=O)C2CC(OC(=O)c3ccc4c(c3)OCO4)CN2C1=O (centres undefined) gave a melting point of 153 to 155 °C.
CC(C)Cn1c(CN2C(=O)c3ccccc3C2=O)c(-c2ccccc2)c2cc(OCc3ccccc3)ccc2c1=O gave a melting point of 113 to 114 °C.
Work on COC(=O)c1ccc(NC(=O)c2c(-c3ccccc3)c(-c3ccc(F)cc3)n(CC[C@@H]3C[C@H](CC(=O)OC(C)(C)C)OC(C)(C)O3)c2C(C)C)cc1 yielded a melting point of 159 to 160 °C.
With COc1cc(C(=O)O)ccc1Cc1c(Cl)n(C)c2cc(Cl)c(CC(C)NC(=O)N(C)C)cc12 (centres undefined) the melting point was 125 to 135 °C.
Compound CC(C)(C)C(C)(O)C(CCOc1ccccc1)n1cncn1 (centres undefined) has a melting point of 118 to 120 °C.
For COc1cccc(-c2ccc(C3C(CCC(O)c4ccc(F)cc4)C(=O)N3c3ccc(F)cc3)cc2)c1OC (centres undefined), the melting point was 101 °C.
Work on CS(=O)(=O)c1ccc(-c2nc3cc(OC(=O)N4CCCCC4)ccc3s2)c(F)c1 yielded a melting point of 173 to 178 °C.
COc1ccc(N(C)c2nccc(-c3ccncc3)n2)cc1 showed a melting point of 124 to 126 °C.
Work on Clc1ccc2c(c1)C(=C1CCN(CC3CCC3)CC1)c1ccccc1S2 yielded a melting point of 180 to 182 °C.
For CC(C)(C)OC(=O)NC(C(=O)NC1c2cc(C#N)ccc2OC(C)(C)C1O)c1ccccc1 (centres undefined), the melting point was 112 to 130 °C.
With C#CCN1CCc2ccc([N+](=O)[O-])cc2CC1 the melting point was 122 to 125 °C.
Work on CCCc1c(OCCCS(=O)(=O)c2ccc(C(=O)CCC#N)cc2)ccc(C(C)=O)c1O yielded a melting point of 143 to 144 °C.
COc1ccc(COc2cccc(N)c2N)cc1 showed a melting point of 127 °C.

— a melting point compilation (Tetko et al.; mined from patent text by program, amines drawn as free bases though some values may be those of a salt)
